Here are results for 3 compounds from patent US20100144728A1, “Oxazolidinone For The Treatment And Prophylaxis Of Pulmonary Hypertension” (Bayer Schering Pharma AG, priority 2007, published 2010).

The test system of this data set is monocrotaline-induced pulmonary hypertension. Kind of data set: Monocrotaline-induced pulmonary hypertension in rats (haemodynamics, right heart hypertrophy, bleeding). Type of data set: in vivo, rat. The note with it: for bleeding complications in treated animals: bleeding with fatal outcome or need to euthanize; for effect on haemodynamics in the right heart and pulmonary circulation and right heart hypertrophy (in words): comparison of Example 1, enoxaparin and warfarin. From the text:
The monocrotaline-induced pulmonary hypertension in rats is a widely used animal model of pulmonary arterial hypertension. The pyrrolizidine alkaloid monocrotaline is metabolized after subcutaneous injection to toxic monocrotaline pyrrole in the liver and leads within a few days to endothelial damage and coagulation activation and thrombosis formation in the pulmonary circulation, followed by remodelling of the small pulmonary arteries (media hypertrophy, de-novo muscularization). A single subcutaneous injection is sufficient to induce pronounced pulmonary hypertension in rats within 4 weeks.
Male Sprague-Dawley rats are used for the model. On day 0, the animals receive a subcutaneous injection of monocrotaline 60 mg/kg. The treatment of the animals starts before the monocrotaline injection and extends over a period of at least 28 days. At the end of the study, the animals undergo haemodynamic investigations, and the arterial and central venous oxygen saturation is measured. The rats are initially anaesthetized with pentobarbital 60 mg/kg for the haemodynamic measurement. The animals are then tracheotomized and artificially ventilated (frequency: 60 breaths/min; inspiration to expiration ratio: 50:50; positive end-expiratory pressure: 1 cm H2O; tidal volume: 10 ml/kg body weight; FIO2: 0.5). The anaesthesia is maintained by isoflurane inhalation anaesthesia. The systemic blood pressure is measured in the left carotid artery by means of a Millar microtip catheter. A polyethylene catheter is advanced through the right jugular vein into the right ventricle for determining the right ventricular pressure. The cardiac output is measured by thermodilution. Following the haemodynamics, the heart is removed and the ratio of right to left ventricle including septum is determined.

For the compound `O=C(NC[C@H]1CN(c2ccc(N3CCOCC3=O)cc2)C(=O)O1)c1ccc(Cl)s1` [Example 1, 5-chloro-N-({(5S)-2-oxo-3-[4-(3-oxomorpholin-4-yl)phenyl]-1,3-oxazolidin-5-yl}methyl)thiophene-2-carboxamide], the “bleeding complications in treated animals” value (“bleeding complications” below) is recorded as “no bleedings”; the “effect on haemodynamics in the right heart and pulmonary circulation and right heart hypertrophy (in words)” value (“effect on haemodynamics” below) is “better activity”. Where the note is “Table 1, 3-9 mg/kg/d”, this compound came in with an RVEDP of 4 mmHg and a dP/dtmax of 2715 mmHg/s. Moreover, the RVPmax (Table 1, 3-9 mg/kg/d, at least 28 days treatment) came to 55 mmHg. For the same compound, the CO (Table 1, 3-9 mg/kg/d, cardiac output) was 117 mL/min. Moreover, the “RV/(LV + S)” value (Table 1, 3-9 mg/kg/d, weight of right heart relative to left heart including septum) came to 0.41. Moreover, under “Table 1, 10-30 mg/kg/d”, the CO was determined as 117 mL/min, the “RV/(LV + S)” value is listed as 0.33, the RVEDP is on record as 3 mmHg and the RVPmax amounted to 44 mmHg. The compound further came in with a dP/dtmax (Table 1, 10-30 mg/kg/d) of 2244 mmHg/s. For the same compound, under “Table 2, 10-30 mg/kg/d”, the CO worked out at 125 mL/min, the “RV/(LV + S)” value is reported as 0.38, the RVEDP was 3 mmHg and the RVPmax worked out at 57 mmHg. The dP/dtmax (Table 2, 10-30 mg/kg/d) is on record as 3300 mmHg/s.
For the compound `CC(=O)CC(c1ccccc1)c1c(O)c2ccccc2oc1=O` (stereo not shown) [Warfarin, warfarin, reference compound], the “bleeding complications” value is listed as “half of the animals”; the “effect on haemodynamics” value is “significantly smaller effect”. Further, where the note is “Table 2, 0.1-0.2 mg/kg/d”, the CO turned out to be 100 mL/min, the “RV/(LV + S)” value was determined as 0.46, the RVEDP is 4 mmHg and the RVPmax is on record as 64 mmHg. In addition, the dP/dtmax (Table 2, 0.1-0.2 mg/kg/d) turned out to be 4535 mmHg/s.
For enoxaparin [reference compound], the “bleeding complications” value is listed as “half of the animals”; the “effect on haemodynamics” value is “no effect”. Where the note is “Table 2, 20 mg/kg/d”, the CO worked out at 77 mL/min, the “RV/(LV + S)” value is listed as 0.56, the RVEDP was determined as 6 mmHg and the RVPmax is 85 mmHg. Also, the dP/dtmax (Table 2, 20 mg/kg/d) is on record as 4644 mmHg/s.
